Assay results: patent EP0103381B1, “Substituted anthra(1,9-cd)pyrazol-6(2H)-ones” (WARNER-LAMBERT COMPANY, priority 1982, dated 1984)

Key:
Format in all cases: cell-based
Penicillium avellaneum = experiment: agar plate paper-disc inhibition zone screening; details: Hamigera avellanea, read-out: Inhibition Zone Diameter mm (Dose mg/ml) P. Avellaneum; for zone of inhibition at 3000 µg/mL: Dose 3.0 mg/ml
In short: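 Mycelia and spores from a six-day 28°C agar culture, suspended in saline with 0.05% Tween 80 at 20% transmittancy, were seeded into molten agar trays. Compounds at 3,000, 1,000, 500, 100 and 10 mcg/ml (solvent <10%) were applied on 12.7 mm paper discs. After at least 20-24 h incubation, inhibition zone diameter was measured in mm.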

Streptococcus faecalis = experiment: agar plate paper-disc inhibition zone screening; details: Enterococcus faecalis, read-out: Inhibition Zone Diameter mm (Dose mg/ml) S. Faecalis; for zone of inhibition at 1000 µg/mL: Dose 1.0 mg/ml; for zone of inhibition at 3000 µg/mL: Dose 3.0 mg/ml; for zone of inhibition at 500 µg/mL: Dose 0.5 mg/ml
In short: (§1)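 Read-out: diameter (mm) of the inhibition zone around 12.7 mm paper discs after overnight (18-20 h) incubation at 37°C. Discs carried compound at 3,000-10 mcg/ml in alcohol, DMSO or DMF, final solvent <10%. Seeded agar trays used saline-suspended cells adjusted to 20-35% transmittancy.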

Aerobacter aerogenes = experiment: agar plate paper-disc inhibition zone screening; details: Klebsiella aerogenes, read-out: Inhibition Zone Diameter mm (Dose mg/ml) A. Aerogenes; for zone of inhibition at 500 µg/mL: Dose 0.5 mg/ml
In short: as §1

Bacillus subtilis = experiment: agar plate paper-disc inhibition zone screening; details: read-out: Inhibition Zone Diameter mm (Dose mg/ml) B. Subtilis; for zone of inhibition at 100 µg/mL: Dose 0.1 mg/ml
In short: as §1

Escherichia coli = experiment: agar plate paper-disc inhibition zone screening; details: read-out: Inhibition Zone Diameter mm (Dose mg/ml) E. Coli; for zone of inhibition at 3000 µg/mL: Dose 3.0 mg/ml; for zone of inhibition at 1000 µg/mL: Dose 1.0 mg/ml; for zone of inhibition at 500 µg/mL: Dose 0.5 mg/ml
In short: as §1

[1] = test system: HCT-8 (human colon adenocarcinoma) cells; experiment: in vitro activity against human colon adenocarcinoma (HCT-8), cell count; details: Homo sapiens; HCT-8 cells, 60-65 hrs with compound; molar quantity of drug required to kill 50% of the tumor cells; read-out: ID50 Molar
Method: HCT-8 (human colon adenocarcinoma) cells are trypsinized using Trypsin-EDTA. A single cell suspension is achieved by passing the cells through a 26 gauge needle with a 20 cc syringe. A cell suspension is prepared using RPMI 1640 growth medium (available from Gibco Laboratories) +10% fetal calf serum +50 µg/ml garamycin with a cell concentration of approximately 30,000 cells/ml. The cell suspension is dispensed in Linbro 24-well plates; 1 ml/well. The plates are incubated for approximately 48 hrs at 37°C in a 5% C02 atmosphere. At this time test compounds are added in the appropriate concentration. Five µl of the 200 µg/ml stock solution is added to each well in a primary test. Ten pl of the appropriate dilution is added to each well for a titration test. The plates are reincubated an additional 60-65 hrs at 37°C in a 5% C02 atmosphere. The test is read by lysing the cells using a mix of cationic surfactant, glacial acetic acid and sodium chloride. […] of the lysed cell suspension from each well is added to 8 ml of diluent. Each sample is read with a Coulter counter (ZBI model). The activity of each sample is measured as a percentage of the controls and the data is reported as ID50, that is the molar quantity of drug required to kill 50% of the tumor cells.

Structure (SMILES)	zone of inhibition at 500 µg/mL (Penicillium avellaneum; Dose 0.5 mg/ml)	zone of inhibition at 1000 µg/mL (Streptococcus faecalis)	zone of inhibition at 500 µg/mL (Aerobacter aerogenes)	zone of inhibition at 100 µg/mL (Bacillus subtilis)	zone of inhibition at 3000 µg/mL (Escherichia coli)	IC50 [1]	zone of inhibition at 3000 µg/mL (Penicillium avellaneum)	zone of inhibition at 1000 µg/mL (Escherichia coli)	zone of inhibition at 3000 µg/mL (Streptococcus faecalis)	zone of inhibition at 1000 µg/mL (Aerobacter aerogenes; Dose 1.0 mg/ml)	zone of inhibition at 1000 µg/mL (Bacillus subtilis; Dose 1.0 mg/ml)	zone of inhibition at 500 µg/mL (Bacillus subtilis; Dose 0.5 mg/ml)	zone of inhibition at 500 µg/mL (Streptococcus faecalis)	zone of inhibition at 100 µg/mL (Aerobacter aerogenes; Dose 0.1 mg/ml)	zone of inhibition at 500 µg/mL (Escherichia coli)	zone of inhibition at 1000 µg/mL (Penicillium avellaneum; Dose 1.0 mg/ml)
CCN(CC)CCNc1ccc2c3c(nn2C)-c2ccccc2C(=O)c13 [Example 10, 5-[[2-[Diethylamino)ethyl]amino]-2-methylanthra[1,9-cd]pyrazol-6(2H)-one]	16 mm	16 mm	17 mm	15 mm	15 mm	0.41 µM										
Cn1nc2c3c(c(NCCNCCO)ccc31)C(=O)c1ccccc1-2 [Example 11, 5-[[2-[(2-Hydroxyethyl)amino]ethyl]amino]-2-methylanthra[1,9-cd]pyrazol-6(2H)-one]		14 mm	17 mm	14 mm		0.4 µM	0 mm	14 mm								
CCN(CC)CCNc1ccc2c3c(nn2CCO)-c2ccccc2C(=O)c13 [Example 13, 5-[[2-(Diethylamino]ethyl]amino]-2-(2-hydroxyethyl)anthra[1,9-cd]pyrazol-6(2H)-one]		14 mm	20 mm	15 mm		1.8 µM	16 mm	15 mm								
CCN(CC)CCCNc1ccc2c3c(nn2CCO)-c2ccccc2C(=O)c13 [Example 15, 5-[[3-(Diethylamino)propyl]amino]-2-(2-hydroxyethyl)anthra[1,9-cd]pyrazol-6(2H)-one]					0 mm	0.48 µM	0 mm		14 mm	15 mm	22 mm					
O=C1c2ccccc2-c2n[nH]c3ccc(NCCNCCO)c1c23 [Example 19, 5-[[2-[(2-Hydroxyethyl)amino]ethyl]amino]anthra[1,9-cd]pyrazol-6-(2H)-one]			18 mm		0 mm	1.5 µM	0 mm		17 mm			19 mm				
CNc1ccc2c3c(nn2CCNCCO)-c2ccccc2C(=O)c13 [Example 26, 2-[2-[(2-Hydroxyethyl)amino]ethyl]-5-(methylamino)anthra[1,9-cd]pyrazol-6(2H)-one]				14 mm		0.28 µM	0 mm						15 mm	15 mm	14 mm	
CCN(CC)CCn1nc2c3c(cccc31)C(=O)c1c(NCCNCCO)cccc1-2 [Example 79, 2-[2-(Diethylamino)ethyl]-7-[[2-[(2-hydroxyethyl)amino]ethyl]amino]anthra[1,9-cd]pyrazol-6(2H)-one]			18 mm	20 mm		0.093 µM	15 mm						16 mm		15 mm	
CCN(CC)CCNc1cccc2c1C(=O)c1cccc3c1c-2nn3CCN(CC)CC [Example 80, 2-[2-(Diethylamino)ethyl]-7-[[2-(diethylamino)ethyi]amino]anthra[1,9-cd]pyrazol-6(2H)-one]			16 mm	19 mm		0.22 µM							15 mm		14 mm	16 mm
